The target of one experiment is human SGLT1 (Homo sapiens (Human), UniProt P13866). Briefly: SGLT1 inhibitory activity: 14C-AMG uptake into CHO-K1 cell line stably expressing human SGLT1. The class given is cell-based. The note with it: 14C-AMG uptake, CHO-K1 cells expressing human SGLT1. In a few lines:
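Human SGLT1 was stably expressed in CHO-K1 cells. Cells were first held 20 min in sodium-free buffer, then exposed to compound in Na(+)/BSA buffer with tracer and AMG (2 mM in the added solution).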
human SGLT1, sequence (P13866 whole entry): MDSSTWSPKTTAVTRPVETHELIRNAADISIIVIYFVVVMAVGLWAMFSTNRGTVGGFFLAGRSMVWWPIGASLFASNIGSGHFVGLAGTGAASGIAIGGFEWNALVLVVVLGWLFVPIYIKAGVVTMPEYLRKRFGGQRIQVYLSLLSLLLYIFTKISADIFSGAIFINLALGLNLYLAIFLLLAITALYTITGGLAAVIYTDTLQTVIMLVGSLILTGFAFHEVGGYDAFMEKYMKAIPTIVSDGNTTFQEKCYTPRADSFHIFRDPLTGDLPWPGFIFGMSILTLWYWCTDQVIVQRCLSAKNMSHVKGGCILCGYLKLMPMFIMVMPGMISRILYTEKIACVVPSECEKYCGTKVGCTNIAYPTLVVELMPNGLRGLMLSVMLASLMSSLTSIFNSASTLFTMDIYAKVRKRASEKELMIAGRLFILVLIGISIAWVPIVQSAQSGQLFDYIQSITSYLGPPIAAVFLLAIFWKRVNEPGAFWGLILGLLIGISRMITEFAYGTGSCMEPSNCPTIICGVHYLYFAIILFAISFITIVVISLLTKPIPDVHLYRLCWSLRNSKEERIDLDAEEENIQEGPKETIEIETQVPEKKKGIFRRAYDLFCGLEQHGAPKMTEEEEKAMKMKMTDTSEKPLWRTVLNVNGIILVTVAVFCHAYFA
The compound `CCCc1cccc(-c2cc(NC(=O)[C@H]3CNC(=O)C3)nn2CCC(C)(C)C)c1` [Example 134] registered an IC50 of 6.8 nM.

For `CCCc1cccc(-c2cc(NC(=O)[C@H]3CNC(=O)C3)nn2CCC(C)C)c1` [Example 135], the IC50 was found to be 11 nM.

`CCCc1cccc(-c2cc(NC(=O)[C@H]3CNC(=O)C3)nn2C2CCOCC2)c1` [Example 136] gave an IC50 of 28 nM.

`CCCc1cccc(-c2cc(NC(=O)[C@H]3CNC(=O)C3)nn2CCC2CCCC2)c1` [Example 137] registered an IC50 of 14 nM.

Turning to `CC(C)C(F)(F)c1cccc(-c2cc(NC(=O)[C@H]3CNC(=O)C3)nn2-c2ccccc2)c1` [Example 138], it took 1.5 nM to reach half-maximal inhibition (IC50).

`CCC(F)(F)c1cccc(-c2cc(NC(=O)[C@H]3CNC(=O)C3)nn2-c2cccc(Cl)c2)c1` [Example 139] showed an IC50 of 1.7 nM.

On to `CCC(F)(F)c1cccc(-c2cc(NC(=O)[C@H]3CNC(=O)C3)nn2-c2ccccc2Cl)c1` [Example 140], for which the IC50 was found to be 1.1 nM.

`CCC(F)(F)c1cccc(-c2cc(NC(=O)[C@H]3CNC(=O)C3)nn2-c2ccc(Cl)cc2)c1` [Example 141] showed an IC50 of 5.5 nM.

The compound `CCC(F)(F)c1cccc(-c2cc(NC(=O)[C@H]3CNC(=O)C3)nn2CCC(C)C)c1` [Example 142] yielded an IC50 of 9.2 nM.

In turn, `CCC(F)(F)c1cccc(-c2cc(NC(=O)[C@H]3CNC(=O)C3)nn2CCC(C)(C)C)c1` [Example 143] had an IC50 of 6.5 nM.

Take `CCC(F)(F)c1cccc(-c2cc(NC(=O)[C@H]3CNC(=O)C3)nn2-c2ccccc2C)c1` [Example 144]: the IC50 was 1.3 nM.

For `O=C1C[C@@H](C(=O)Nc2cc(-c3cccc(OC(F)(F)F)c3)n(-c3ccc(F)cc3)n2)CN1` [Example 147], the IC50 is 15 nM.

`O=C1C[C@@H](C(=O)Nc2cc(-c3cccc(OCC(F)(F)F)c3)n(-c3ccccc3)n2)CN1` [Example 148] had an IC50 of 10 nM.

As to `O=C1C[C@@H](C(=O)Nc2cc(-c3cccc(OCCC(F)(F)F)c3)n(-c3ccccc3)n2)CN1` [Example 149], the IC50 worked out at 9.5 nM.

With `C[C@H]1C(=O)NC[C@@H]1C(=O)Nc1cc(-c2cccc(OC(F)(F)F)c2)n(-c2ccc(Cl)cc2)n1` [Example 152], the half-inhibitory concentration (IC50) was 9.3 nM.

In the case of `CC(C)(C)c1cccc(-c2cc(NC(=O)[C@H]3CNC(=O)C3)nn2-c2ccc(Cl)cc2)c1` [Example 153], the midpoint of inhibition, the IC50, lay at 3.3 nM.

In turn, `CCC(F)(F)c1cccc(-c2cc(NC(=O)[C@H]3CNC(=O)[C@@H]3C)nn2-c2ccccc2)c1` [Example 154] showed an IC50 of 1.1 nM.

Take `CCC(F)(F)c1cccc(-c2cc(NC(=O)[C@H]3CNC(=O)C3)nn2C2CCOCC2)c1` [Example 155]: the IC50 was determined as 19 nM.

`Cc1ccccc1-n1nc(NC(=O)[C@H]2CNC(=O)C2)cc1-c1cccc(OC(F)(F)F)c1` [Example 156] had an IC50 of 2.7 nM.

In the case of `O=C1C[C@@H](C(=O)Nc2cc(-c3cccc(OC(F)(F)F)c3)n(-c3cccc(F)c3)n2)CN1` [Example 157], it took 13 nM to reach half-maximal inhibition (IC50).

As for `CC(C)C(F)(F)c1cccc(-c2cc(NC(=O)[C@H]3CNC(=O)C3)nn2-c2ccc(Cl)cc2)c1` [Example 158], it took 3.4 nM to reach half-maximal inhibition (IC50).

Regarding `O=C1C[C@@H](C(=O)Nc2cc(-c3cccc(OCC(F)(F)F)c3)n(-c3ccc(Cl)cc3)n2)CN1` [Example 159], the IC50 is 17 nM.

In turn, `O=C1C[C@@H](C(=O)Nc2cc(-c3cccc(OCCC(F)(F)F)c3)n(-c3ccc(Cl)cc3)n2)CN1` [Example 160] came in with an IC50 of 11 nM.

`CC(F)(F)c1cccc(-c2cc(NC(=O)[C@H]3CNC(=O)C3)nn2-c2ccccc2)c1` [Example 161] yielded an IC50 of 22 nM.

The compound `CC(F)(F)c1cccc(-c2cc(NC(=O)[C@H]3CNC(=O)C3)nn2-c2ccc(Cl)cc2)c1` [Example 162] displayed a half-inhibitory concentration (IC50) of 19 nM.

Consider `COc1cccc(-n2nc(NC(=O)[C@H]3CNC(=O)C3)cc2-c2cccc(OC(F)(F)F)c2)c1` [Example 163], for which it took 7.1 nM to reach half-maximal inhibition (IC50).

Take `CCC(F)(F)c1cccc(-c2cc(NC(=O)[C@H]3CNC(=O)C3)nn2-c2cccc(OC)c2)c1` [Example 164]: half-maximal inhibition (IC50) required 2.6 nM.

`C[C@H]1C(=O)NC[C@@H]1C(=O)Nc1cc(-c2cccc(OC(F)(F)F)c2)n(-c2ccccc2F)n1` [Example 166] gave an IC50 of 2.9 nM.

Take `CCC(F)(F)c1cccc(-c2cc(NC(=O)[C@H]3CNC(=O)[C@@H]3C)nn2-c2cccc(F)c2)c1` [Example 170]: the IC50 stood at 3 nM.

In turn, `CCC(F)(F)c1cccc(-c2cc(NC(=O)[C@H]3CNC(=O)[C@@H]3C)nn2-c2ccc(F)cc2)c1` [Example 172] returned an IC50 of 5.5 nM.

Regarding `CCC(F)(F)c1cccc(-c2cc(NC(=O)[C@H]3CNC(=O)C3)nn2-c2ccc(F)cc2)c1` [Example 173], it took 13 nM to reach half-maximal inhibition (IC50).

The compound `CCC(F)(F)c1cccc(-c2cc(NC(=O)[C@H]3CNC(=O)[C@@H]3C)nn2CCOC(C)C)c1` [Example 176] displayed an IC50 of 55 nM.

Compound `CC(C)(C)c1cccc(-c2cc(NC(=O)[C@H]3CNC(=O)C3)nn2C2CCOCC2)c1` [Example 177] had an IC50 of 56 nM.

`C[C@H]1C(=O)NC[C@@H]1C(=O)Nc1cc(-c2cccc(C(C)(C)C)c2)n(C2CCOCC2)n1` [Example 178] returned an IC50 of 14 nM.

On to `CCC(F)(F)c1cccc(-c2cc(NC(=O)[C@H]3CNC(=O)[C@@H]3C)nn2C2CCOCC2)c1` [Example 179], for which half-maximal inhibition (IC50) required 19 nM.

`CCC(F)(F)c1cccc(-c2cc(NC(=O)[C@H]3CNC(=O)C3)nn2-c2cccc(F)c2)c1` [Example 181] returned an IC50 of 4.3 nM.

`CCC(F)(F)c1cccc(-c2cc(NC(=O)[C@H]3CNC(=O)C3)nn2-c2ccccc2F)c1` [Example 182] gave a concentration for half-maximal inhibition (IC50) of 3.8 nM.

`O=C1C[C@@H](C(=O)Nc2cc(-c3cccc(OC(F)(F)F)c3)n(-c3ccc(F)cc3F)n2)CN1` [Example 183] registered an IC50 of 20100 nM.

In turn, `O=C1C[C@@H](C(=O)Nc2cc(-c3cccc(OC(F)(F)F)c3)n(C3CCOCC3)n2)CN1` [Example 187] gave an IC50 of 42 nM.

Take `C[C@H]1C(=O)NC[C@@H]1C(=O)Nc1cc(-c2cccc(OC(F)(F)F)c2)n(C2CCOCC2)n1` [Example 188]: the half-inhibitory concentration (IC50) is 23 nM.

Consider `O=C1C[C@@H](C(=O)Nc2cc(-c3cccc(OC(F)(F)F)c3)n(CCC(F)(F)F)n2)CN1` [Example 190], for which the IC50 was 130 nM.

In the case of `C[C@H]1C(=O)NC[C@@H]1C(=O)Nc1cc(-c2cccc(OC(F)(F)F)c2)n(CCC(F)(F)F)n1` [Example 191], half-maximal inhibition (IC50) was put at 54 nM.

In turn, `C[C@H]1C(=O)NC[C@@H]1C(=O)Nc1cc(-c2cccc(OC(F)(F)F)c2)n(-c2ccccc2Cl)n1` [Example 193] came in with a half-maximal inhibitory concentration (IC50) of 1.3 nM.

Consider `C[C@H]1C(=O)NC[C@@H]1C(=O)Nc1cc(-c2cccc(C(C)(C)C)c2)n(-c2ccccc2Cl)n1` [Example 194], for which inhibition was half-maximal at 0.7 nM (IC50).

Consider `Cc1cc(F)ccc1-n1nc(NC(=O)[C@H]2CNC(=O)C2)cc1-c1cccc(OC(F)(F)F)c1` [Example 195], for which 8.3 nM corresponded to half-maximal inhibition (IC50).

`Cc1cc(F)ccc1-n1nc(NC(=O)[C@H]2CNC(=O)[C@@H]2C)cc1-c1cccc(OC(F)(F)F)c1` [Example 196] came in with a concentration for half-maximal inhibition (IC50) of 4.8 nM.

Compound `O=C1C[C@@H](C(=O)Nc2cc(-c3cccc(OC(F)(F)F)c3)n(C3CCC(F)(F)CC3)n2)CN1` [Example 197] yielded an IC50 of 180 nM.

In the case of `C[C@H]1C(=O)NC[C@@H]1C(=O)Nc1cc(-c2cccc(OC(F)(F)F)c2)n(C2CCC(F)(F)CC2)n1` [Example 198], inhibition was half-maximal at 67 nM (IC50).

The compound `C[C@H]1C(=O)NC[C@@H]1C(=O)Nc1cc(-c2cccc(OC(F)(F)F)c2)n(CC2CCOCC2)n1` [Example 200] showed an IC50 of 120 nM.

The compound `O=C1C[C@@H](C(=O)Nc2cc(-c3cccc(OC(F)(F)F)c3)n(CCC3CCOCC3)n2)CN1` [Example 201] displayed an IC50 of 93 nM.

Compound `C[C@H]1C(=O)NC[C@@H]1C(=O)Nc1cc(-c2cccc(C(F)(F)F)c2)n(-c2ccc(F)cc2)n1` [Example 202] registered an IC50 of 12 nM.

`C[C@H]1C(=O)NC[C@@H]1C(=O)Nc1cc(-c2cccc(C(F)(F)F)c2)n(-c2ccccc2Cl)n1` [Example 203] had an IC50 of 1.4 nM.

As for `O=C1C[C@@H](C(=O)Nc2cc(-c3cccc(C(F)(F)F)c3)n(-c3ccc(F)cc3)n2)CN1` [Example 204], it took 18 nM to reach half-maximal inhibition (IC50).

`O=C1C[C@@H](C(=O)Nc2cc(-c3cccc(C(F)(F)F)c3)n(-c3ccccc3Cl)n2)CN1` [Example 205]: the IC50 was found to be 3.6 nM.

With `O=C1C[C@@H](C(=O)Nc2cc(-c3cccc(OCC(F)(F)F)c3)n(-c3cccc(F)c3)n2)CN1` [Example 206], the IC50 was 4.8 nM.

The same experiment, now with this note: CHO-K1, at 0.03 uM.
As for `C[C@H]1C(=O)NC[C@@H]1C(=O)Nc1cc(-c2cccc(OC(F)(F)F)c2)n(-c2ccc(F)cc2F)n1` [Example 184], the inhibition at 0.03 µM came to 3%.

The experiment is the same for the next values; noted with them: CHO-K1, at 0.1 uM.
Consider `CCCc1cc(CO)cc(-c2cc(NC(=O)[C@H]3CNC(=O)C3)nn2-c2ccccc2)c1` [Example 146], for which the inhibition at 0.1 µM is 38%.

On to `CCC(F)(F)c1cccc(-c2cc(NC(=O)[C@H]3CNC(=O)C3)nn2CCN2CCCC2)c1` [Example 169], for which the inhibition at 0.1 µM turned out to be 4%.

On to `CCC(F)(F)c1cccc(-c2cc(NC(=O)[C@H]3CNC(=O)C3)nn2CCOC(C)C)c1` [Example 175], for which the inhibition at 0.1 µM is 40%.

The same experiment, now with this note: CHO-K1, at 0.3 uM.
With `C[C@H]1C(=O)NC[C@@H]1C(=O)Nc1cc(-c2cccc(OC(F)(F)F)c2)n(-c2ccc(Cl)c(F)c2)n1` [Example 180], the inhibition at 0.3 µM is -10%.

Consider `O=C1C[C@@H](C(=O)Nc2cc(-c3cccc(OC(F)(F)F)c3)n(-c3ccc(F)cc3Cl)n2)CN1` [Example 192], for which the inhibition at 0.3 µM stood at 6%.

In the case of `O=C1C[C@@H](C(=O)Nc2cc(-c3cccc(OC(F)(F)F)c3)n(CC3CCOCC3)n2)CN1` [Example 199], the inhibition at 0.3 µM was 40%.

Still in this experiment, the particulars now being: CHO-K1, at 1 uM.
Consider `CCCc1cc(C(=O)O)cc(-c2cc(NC(=O)[C@H]3CNC(=O)C3)nn2-c2ccccc2)c1` [Example 145], for which the inhibition at 1 µM was determined as 43%.

For `O=C1C[C@@H](C(=O)Nc2cc(-c3cccc(OC(F)(F)F)c3)n(-c3ccc(Cl)c(F)c3)n2)CN1` [Example 174], the inhibition at 1 µM turned out to be 9%.
